For assay [1], the species on record is Mus musculus. As to the kind of experiment: Compound was evaluated for narcotic analgesia activity in mice by the tail flick test. Format: functional.
The species named for assay [2] is Mus musculus. As to the kind of experiment: Compound was evaluated for narcotic analgesia activity in mice by mouse writhing assay. The assay is classed as functional.
Assay [3] deals with T1, Opioid receptor (Rattus norvegicus, UniProt P33533+P34975+P33535). Briefly: Compound was evaluated for the inhibition of [3H]- naloxone Opioid receptors binding using rat brain membrane in the absence of Na.
Assay [4] is filed under the species Mus musculus. Briefly: Compound was evaluated for narcotic analgesia activity in mice by hot plate test. Format: functional.
Assay [5] relates to Mus musculus. Briefly: Compound was evaluated for antagonism of tail-flick analgesia induced by 6.5 mg/kg of morphine sulfate at 1 mg/kg. The assay is classed as functional.
Assay [6] deals with Mus musculus. Briefly: Compound was evaluated for antagonism of tail-flick analgesia induced by 6.5 mg/kg of morphine sulfate at 0.3 mg/kg. Format: functional.
For assay [7], the target named is T1, Opioid receptor. Briefly: Compound was evaluated for the inhibition of [3H]- naloxone Opioid receptors binding using rat brain membrane in the presence of 100 mM Na.
Assay [8] has as its target T1, Opioid receptor. As to the kind of experiment: Compound was evaluated for the inhibition of [3H]- naloxone binding to Opioid receptors in rat brain membrane in the presence of Na. Format: cell membranes.
Assay [9] has as its target T1, Opioid receptor. The assay is classed as cell membranes, Brain, Membrane.
The test system of assay [10] is Mus musculus. Briefly: Compound was evaluated for narcotic analgesia activity in mice by the tail flick test; Weak up to 30 and 38% analgesia at 30 mg/kg. Details: dose 30 mg/kg. The assay is classed as functional, organism-based.
Assay [11] concerns Mus musculus. Briefly: Compound was evaluated for narcotic analgesia activity in mice by mouse writhing assay at 30 mg/kg; Inactive. Format: functional, organism-based. Set-up: dose 30 mg/kg.
For assay [12], the system named is Mus musculus. As to the kind of experiment: Compound was evaluated for antagonism of tail-flick analgesia induced by 6.5 mg/kg of morphine sulfate at 10 mg/kg; Inactive. Format: functional, organism-based.

Structures are written as SMILES. Calls of active or inactive are those of the source. No cut-off for these calls is given here.

As to `C=CCN(C)C(C)CC(c1ccccc1)(c1ccccc1)C(CC)OC(C)=O` (centres undefined), the figures for the ED50 in the assay listed under Mus musculus [1], in the assay filed under Mus musculus [2] and in the assay filed under Mus musculus [4] were 3.1 mg/kg, 2.5 mg/kg and 10 mg/kg, respectively. In addition, the Ki was found to be 900 nM on Opioid receptor [3] and 10000 nM on Opioid receptor [7]. The values for the ED80 in the assay on Mus musculus [5] and in the assay on Mus musculus [6] were 61.4 mg/kg and 56.9 mg/kg, respectively.

As for `C=CCN(C)C(C)CC(c1ccccc1)(c1ccccc1)C(O)CC` (centres undefined), the Ki was determined as 2000 nM at Opioid receptor [8] and 150 nM at Opioid receptor [9].

With `CCC(O)C(CC(C)N(C)CC1CC1)(c1ccccc1)c1ccccc1` (centres undefined), the Ki on Opioid receptor [8] is 5000 nM; at Opioid receptor [9], 600 nM.

On to `CCC(OC(C)=O)C(CC(C)N(C)CC1CC1)(c1ccccc1)c1ccccc1` (centres undefined), for which, in the assay on Mus musculus [10], the 50% effective dose (ED50) result was “Weak activity”. In addition, the inhibitory constant (Ki) on Opioid receptor [8] turned out to be 30000 nM; on Opioid receptor [9], 2000 nM. The ED50 entry in the assay with Mus musculus [11] and in the assay with Mus musculus [12] was “inactive” throughout.

On to `CN1CC[C@]23c4c5ccc(O)c4O[C@H]2[C@@H](O)C=C[C@H]3[C@H]1C5.CN1CC[C@]23c4c5ccc(O)c4O[C@H]2[C@@H](O)C=C[C@H]3[C@H]1C5.O=S(=O)(O)O`, for which the ED50 in the assay filed under Mus musculus [1] amounted to 3.3 mg/kg; in the assay filed under Mus musculus [2], 0.82 mg/kg; in the assay listed under Mus musculus [4], 3.05 mg/kg.
